In ChEMBL document CHEMBL5674850, “ASAP - Solubility” (2024):
Values after ≈ are worked out from the molar mass of the structure shown.

assay: Kinetic solubility of compound by measuring concentration at pH 7.4 in saturated PBS buffer by UV LCMS/MS using calibration curves. The assay has been performed by Enamine biological services, Bienta Ltd.The protocol is publicly available: dx.doi.org/10.17504/protocols.io.j8nlk8y41l5r/v1; format: physicochemical; conditions: PBS buffer

| solubility kinetic [µM] | Structure (SMILES) |
| --- | --- |
| 3 (≈ 1.19 µg/mL) | N#Cc1cccc(-c2nc3c(C(=O)Nc4ccc5c(c4)CNC5)cc(F)cc3[nH]2)c1 |
| 392 (≈ 134 µg/mL) | CSc1cc2c(cc1NC(=O)c1cc(F)cc3[nH]ncc13)CNC2 |
| 356 (≈ 150 µg/mL) | O=C(Nc1cc(Cl)cc(-c2ccc3[nH]c(C(=O)O)cc3c2)c1)OCc1ccccc1 |
| 66 (≈ 26.9 µg/mL) | O=C(Nc1cc2c(c(-c3c[nH]c(=O)c(F)c3)c1)CNC2)c1cc(F)cc2[nH]ncc12 |
| 172 (≈ 72.2 µg/mL) | CN(c1ccc2c(c1)CNC2)[C@H](C(=O)NCC(F)F)c1cc(Cl)cc(C2CC2)c1 |
| 394 (≈ 158 µg/mL) | O=C(NCCCF)[C@H](Nc1ccc2c(c1)CNC2)c1cc(Cl)cc(C2CC2)c1 |
| 192 (≈ 78.7 µg/mL) | COCc1cc(Cl)cc([C@H](Nc2ccc3c(c2)CNC3)C(=O)NCC(F)F)c1 |
| 21 (≈ 12.4 µg/mL) | NCc1cccc(NC(=O)C[C@H](NC(=O)OCc2ccccc2)c2ccc(OCc3ccccc3)c(Br)c2)c1 |
| 375 (≈ 109 µg/mL) | NCc1cccc(NC(=O)c2cc(Cl)cc(CN)c2)c1 |
